Results from patent US11203601B2, “Tricyclic compounds as glycogen synthase kinase 3 (GSK3) inhibitors and uses thereof” (The Broad Institute, Inc., priority 2017, dated 2021).

Columns and labels:
Assay in all cases: Carna kinome panel
Type in all cases: biochemical
Details in all cases: read-out: % Inhibition at 10 μM of the test compound
BRAF(V600E)_Cascade = BRAF(V600E)_Cascade (Homo sapiens (Human), UniProt P15056, V600E)
FGFR4(V550E) = FGFR4(V550E) (Homo sapiens (Human), UniProt P22455, V550E)
KIT(V560G) = KIT(V560G) (Homo sapiens (Human), UniProt P10721, V560G)
IRAK4 = IRAK4 (Homo sapiens (Human), UniProt Q9NWZ3)
Chain of IRAK4 (Q9NWZ3 whole entry): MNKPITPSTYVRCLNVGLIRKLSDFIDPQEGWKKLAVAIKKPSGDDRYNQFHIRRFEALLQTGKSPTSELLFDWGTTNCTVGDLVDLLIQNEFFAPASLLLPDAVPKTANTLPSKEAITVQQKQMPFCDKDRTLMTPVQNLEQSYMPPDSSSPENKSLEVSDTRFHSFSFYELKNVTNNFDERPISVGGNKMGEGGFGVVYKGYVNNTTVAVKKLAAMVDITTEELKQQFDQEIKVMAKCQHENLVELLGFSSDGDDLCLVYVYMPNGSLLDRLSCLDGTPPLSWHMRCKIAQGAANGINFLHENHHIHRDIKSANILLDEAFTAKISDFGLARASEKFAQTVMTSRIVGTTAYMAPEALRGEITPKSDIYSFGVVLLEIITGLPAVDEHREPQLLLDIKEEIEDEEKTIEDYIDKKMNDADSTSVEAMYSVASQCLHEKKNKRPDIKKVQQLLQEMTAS

HIPK1 = HIPK1 (Homo sapiens (Human), UniProt Q86Z02)
EPHB3 = EPHB3 (Homo sapiens (Human), UniProt P54753)
MET(D1228H) = MET(D1228H) (Homo sapiens (Human), UniProt P08581, D1228H)
FGFR3 = FGFR3 (Homo sapiens (Human), UniProt P22607)
Chain of FGFR3 (P22607 23-806, species assumed): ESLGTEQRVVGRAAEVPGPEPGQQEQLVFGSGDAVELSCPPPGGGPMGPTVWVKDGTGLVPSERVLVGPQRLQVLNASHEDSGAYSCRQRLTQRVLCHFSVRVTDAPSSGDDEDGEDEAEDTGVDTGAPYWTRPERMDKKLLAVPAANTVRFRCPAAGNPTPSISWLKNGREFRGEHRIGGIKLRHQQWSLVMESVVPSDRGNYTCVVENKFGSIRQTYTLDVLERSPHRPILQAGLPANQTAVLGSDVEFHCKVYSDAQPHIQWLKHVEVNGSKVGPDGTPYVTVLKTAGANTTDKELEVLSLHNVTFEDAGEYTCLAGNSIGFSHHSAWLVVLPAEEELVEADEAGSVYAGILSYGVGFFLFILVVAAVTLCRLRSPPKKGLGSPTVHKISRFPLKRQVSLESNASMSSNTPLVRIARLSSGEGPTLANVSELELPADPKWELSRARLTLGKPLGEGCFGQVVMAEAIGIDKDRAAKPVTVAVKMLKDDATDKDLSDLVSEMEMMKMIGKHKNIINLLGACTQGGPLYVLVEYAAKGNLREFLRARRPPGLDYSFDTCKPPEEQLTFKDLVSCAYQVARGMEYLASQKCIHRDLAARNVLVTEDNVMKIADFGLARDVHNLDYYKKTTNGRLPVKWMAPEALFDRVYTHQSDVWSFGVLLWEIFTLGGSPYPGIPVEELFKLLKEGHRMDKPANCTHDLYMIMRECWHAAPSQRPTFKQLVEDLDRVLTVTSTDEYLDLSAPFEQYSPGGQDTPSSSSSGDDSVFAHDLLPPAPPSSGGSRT

PYK2 = PYK2 (Homo sapiens (Human), UniProt Q14289)
Chain of PYK2 (Q14289 whole entry): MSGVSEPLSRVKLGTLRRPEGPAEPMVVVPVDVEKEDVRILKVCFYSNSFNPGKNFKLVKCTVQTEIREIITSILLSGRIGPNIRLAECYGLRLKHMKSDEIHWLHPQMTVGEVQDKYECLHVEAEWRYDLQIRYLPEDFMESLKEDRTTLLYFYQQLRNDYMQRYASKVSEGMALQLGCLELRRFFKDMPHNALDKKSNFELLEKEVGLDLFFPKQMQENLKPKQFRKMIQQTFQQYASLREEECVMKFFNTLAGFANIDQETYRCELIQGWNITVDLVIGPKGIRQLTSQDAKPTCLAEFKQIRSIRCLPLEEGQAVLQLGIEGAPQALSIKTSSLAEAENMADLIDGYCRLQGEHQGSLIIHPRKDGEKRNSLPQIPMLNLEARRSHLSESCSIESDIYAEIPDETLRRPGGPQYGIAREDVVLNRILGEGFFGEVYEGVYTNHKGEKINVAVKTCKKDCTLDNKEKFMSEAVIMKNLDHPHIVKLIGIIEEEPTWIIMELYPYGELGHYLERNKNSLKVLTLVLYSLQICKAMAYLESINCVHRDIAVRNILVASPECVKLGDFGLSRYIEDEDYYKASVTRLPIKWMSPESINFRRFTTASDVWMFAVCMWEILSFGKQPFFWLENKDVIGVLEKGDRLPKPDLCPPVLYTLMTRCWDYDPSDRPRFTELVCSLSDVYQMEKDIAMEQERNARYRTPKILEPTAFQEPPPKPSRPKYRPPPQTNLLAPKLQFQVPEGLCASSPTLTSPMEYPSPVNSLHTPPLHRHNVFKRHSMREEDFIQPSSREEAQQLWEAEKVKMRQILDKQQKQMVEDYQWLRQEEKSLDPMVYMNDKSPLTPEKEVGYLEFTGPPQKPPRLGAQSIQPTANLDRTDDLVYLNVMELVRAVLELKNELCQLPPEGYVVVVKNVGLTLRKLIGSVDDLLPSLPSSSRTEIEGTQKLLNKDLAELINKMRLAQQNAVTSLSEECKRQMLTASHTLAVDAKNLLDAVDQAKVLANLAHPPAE

p38β = p38β (Homo sapiens (Human), UniProt Q15759)
PKACβ = PKACβ (Homo sapiens (Human), UniProt P22694)
MSK2 = MSK2 (Homo sapiens (Human), UniProt O75676)
KIT(D816V) = KIT(D816V) (Homo sapiens (Human), UniProt P10721, D816V)
CRIK = CRIK (Homo sapiens (Human), UniProt O14578)
FGFR1 = FGFR1 (Homo sapiens (Human), UniProt P11362)
MAPKAPK3 = MAPKAPK3 (Homo sapiens (Human), UniProt Q16644)
RET(G691S) = RET(G691S) (Homo sapiens (Human), UniProt P07949, G691S)
PDK1 = PDK1 (Homo sapiens (Human), UniProt O15530)
CK1ε = CK1ε (Homo sapiens (Human), UniProt P49674)
MER = MER (Homo sapiens (Human), UniProt Q12866)
RET = RET (Homo sapiens (Human), UniProt P07949)
CaMK2α = CaMK2α (Homo sapiens (Human), UniProt Q9UQM7)
MAP2K2_Cascade = MAP2K2_Cascade (Homo sapiens (Human), UniProt P36507)
CDK4/CycD3 = CDK4/CycD3 (Homo sapiens (Human), UniProt P11802)
Chain of CDK4/CycD3 (P11802 whole entry, looked up): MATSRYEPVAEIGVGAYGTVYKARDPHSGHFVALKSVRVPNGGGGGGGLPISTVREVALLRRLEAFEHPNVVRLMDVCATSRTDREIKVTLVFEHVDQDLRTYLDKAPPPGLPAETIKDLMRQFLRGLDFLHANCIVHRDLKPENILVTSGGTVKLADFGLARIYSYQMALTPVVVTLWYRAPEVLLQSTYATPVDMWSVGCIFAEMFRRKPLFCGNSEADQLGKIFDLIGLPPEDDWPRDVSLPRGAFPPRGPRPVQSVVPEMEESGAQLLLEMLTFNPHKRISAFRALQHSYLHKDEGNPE
Chain of CDK4/CycD3 (P30281 whole entry partner, looked up): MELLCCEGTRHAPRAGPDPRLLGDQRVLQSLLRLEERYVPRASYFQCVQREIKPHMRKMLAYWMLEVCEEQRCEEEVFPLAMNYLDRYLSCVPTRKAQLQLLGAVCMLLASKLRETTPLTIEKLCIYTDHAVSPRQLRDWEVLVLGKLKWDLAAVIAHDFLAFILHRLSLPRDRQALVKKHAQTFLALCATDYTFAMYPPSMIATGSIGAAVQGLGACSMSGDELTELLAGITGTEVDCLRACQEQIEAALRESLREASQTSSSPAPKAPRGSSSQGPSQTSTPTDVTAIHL

PEK = PEK (Homo sapiens (Human), UniProt Q9NZJ5)
EPHA7 = EPHA7 (Homo sapiens (Human), UniProt Q15375)
PDGFRα(V561D) = PDGFRα(V561D) (Homo sapiens (Human), UniProt P16234, V561D)
ALK(F1174L) = ALK(F1174L) (Homo sapiens (Human), UniProt Q9UM73, F1174L)
ALK(L1196M) = ALK(L1196M) (Homo sapiens (Human), UniProt Q9UM73, L1196M)
HER2 = HER2 (Homo sapiens (Human), UniProt P04626)
LATS2 = LATS2 (Homo sapiens (Human), UniProt Q9NRM7)
DCAMKL2 = DCAMKL2 (Homo sapiens (Human), UniProt Q8N568)
Chain of DCAMKL2 (Q8N568 whole entry): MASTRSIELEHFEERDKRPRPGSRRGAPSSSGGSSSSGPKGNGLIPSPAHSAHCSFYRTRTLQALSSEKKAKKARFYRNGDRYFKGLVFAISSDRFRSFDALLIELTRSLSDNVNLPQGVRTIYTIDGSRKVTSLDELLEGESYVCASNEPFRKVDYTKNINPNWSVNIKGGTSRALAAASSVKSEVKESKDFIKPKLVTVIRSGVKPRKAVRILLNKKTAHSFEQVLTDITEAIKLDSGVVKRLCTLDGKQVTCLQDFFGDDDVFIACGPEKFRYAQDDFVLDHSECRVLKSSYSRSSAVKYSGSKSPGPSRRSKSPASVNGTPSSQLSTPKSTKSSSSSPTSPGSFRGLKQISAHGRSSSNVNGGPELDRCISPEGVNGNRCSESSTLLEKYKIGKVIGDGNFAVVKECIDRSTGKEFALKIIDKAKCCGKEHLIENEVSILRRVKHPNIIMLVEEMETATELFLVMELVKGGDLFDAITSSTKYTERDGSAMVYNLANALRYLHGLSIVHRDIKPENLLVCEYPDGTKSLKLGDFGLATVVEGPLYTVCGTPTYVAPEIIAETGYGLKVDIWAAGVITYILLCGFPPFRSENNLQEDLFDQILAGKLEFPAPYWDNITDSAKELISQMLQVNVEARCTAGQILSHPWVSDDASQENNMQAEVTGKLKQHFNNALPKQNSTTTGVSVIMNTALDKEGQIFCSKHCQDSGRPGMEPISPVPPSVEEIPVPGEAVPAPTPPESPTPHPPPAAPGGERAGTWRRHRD

PDHK2 = PDHK2 (Homo sapiens (Human), UniProt Q15119)
SIK = SIK (Homo sapiens (Human), UniProt P57059)
ABL(E255K) = ABL(E255K) (Homo sapiens (Human), UniProt P00519, E255K)
TAOK2 = TAOK2 (Homo sapiens (Human), UniProt Q9UL54)
ROCK1 = ROCK1 (Homo sapiens (Human), UniProt Q13464)
PKCζ = PKCζ (Homo sapiens (Human), UniProt Q05513)
Chain of PKCζ (Q05513 whole entry): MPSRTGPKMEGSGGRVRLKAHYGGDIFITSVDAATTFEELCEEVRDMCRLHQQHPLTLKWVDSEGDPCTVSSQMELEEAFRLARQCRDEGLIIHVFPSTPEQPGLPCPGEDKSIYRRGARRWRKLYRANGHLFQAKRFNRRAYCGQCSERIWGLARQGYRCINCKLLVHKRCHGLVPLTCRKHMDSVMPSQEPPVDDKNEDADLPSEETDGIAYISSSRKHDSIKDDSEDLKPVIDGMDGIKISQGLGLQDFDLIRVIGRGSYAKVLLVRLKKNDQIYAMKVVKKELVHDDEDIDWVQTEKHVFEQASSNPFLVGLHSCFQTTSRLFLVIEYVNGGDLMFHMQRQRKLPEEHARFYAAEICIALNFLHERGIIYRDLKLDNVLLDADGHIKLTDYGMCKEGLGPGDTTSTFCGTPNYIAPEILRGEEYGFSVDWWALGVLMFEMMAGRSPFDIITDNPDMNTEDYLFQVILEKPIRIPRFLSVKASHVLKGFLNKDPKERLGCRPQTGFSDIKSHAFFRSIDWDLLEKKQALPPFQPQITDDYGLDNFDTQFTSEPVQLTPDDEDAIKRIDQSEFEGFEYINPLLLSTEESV

MOS_Cascade = MOS_Cascade (Homo sapiens (Human), UniProt P00540)

Chain of BRAF(V600E)_Cascade (P15056 whole entry V600E): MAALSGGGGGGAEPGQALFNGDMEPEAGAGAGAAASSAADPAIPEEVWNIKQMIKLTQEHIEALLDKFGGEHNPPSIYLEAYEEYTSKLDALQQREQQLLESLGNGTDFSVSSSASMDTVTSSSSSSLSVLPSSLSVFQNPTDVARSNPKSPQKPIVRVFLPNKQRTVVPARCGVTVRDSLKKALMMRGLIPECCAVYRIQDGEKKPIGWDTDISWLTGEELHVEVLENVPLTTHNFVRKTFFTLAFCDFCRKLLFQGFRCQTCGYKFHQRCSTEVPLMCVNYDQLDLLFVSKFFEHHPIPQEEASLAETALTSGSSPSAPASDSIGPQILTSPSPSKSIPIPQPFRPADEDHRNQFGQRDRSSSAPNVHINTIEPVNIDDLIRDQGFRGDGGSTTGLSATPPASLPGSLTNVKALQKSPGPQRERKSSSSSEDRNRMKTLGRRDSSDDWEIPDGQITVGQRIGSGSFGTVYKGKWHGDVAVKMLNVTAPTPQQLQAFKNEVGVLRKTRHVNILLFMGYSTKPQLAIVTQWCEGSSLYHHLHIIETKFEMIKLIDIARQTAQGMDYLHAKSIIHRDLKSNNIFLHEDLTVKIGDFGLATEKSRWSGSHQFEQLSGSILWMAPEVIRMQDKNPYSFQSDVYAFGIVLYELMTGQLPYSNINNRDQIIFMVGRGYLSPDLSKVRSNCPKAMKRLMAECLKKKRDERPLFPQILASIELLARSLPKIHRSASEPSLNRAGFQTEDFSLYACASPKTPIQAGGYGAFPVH

Question: `CCC1(c2ccccc2)C2=C(CC(C)(C)CC2=O)Nc2ncsc21` (stereo not drawn) [Compound 1, 9-Ethyl-6,6-dimethyl-9-phenyl-5,6,7,9-tetrahydrothiazolo[4,5-b]quinolin-8(4H)-one] was tested. Which inhibition at 10 µM (BRAF(V600E)_Cascade) did it give?
Answer: Its inhibition at 10 µM is 6.1%.

Question: What about the inhibition at 10 µM (FGFR4(V550E)) of the same compound?
Answer: The inhibition at 10 µM was 4%.

Question: What about the inhibition at 10 µM (KIT(V560G)) of the same compound?
Answer: Its inhibition at 10 µM is -5.8%.

Question: And the inhibition at 10 µM (IRAK4)?
Answer: The inhibition at 10 µM was -1.2%.

Question: What about the inhibition at 10 µM (HIPK1) of the same compound?
Answer: The inhibition at 10 µM was 0.3%.

Question: What about the inhibition at 10 µM (EPHB3) of the same compound?
Answer: The inhibition at 10 µM was -4.8%.

Question: What about the inhibition at 10 µM (MET(D1228H)) of the same compound?
Answer: Its inhibition at 10 µM is -7.7%.

Question: And the inhibition at 10 µM (FGFR3)?
Answer: Its inhibition at 10 µM is 1.6%.

Question: And the inhibition at 10 µM (PYK2)?
Answer: The inhibition at 10 µM was -3.1%.

Question: And the inhibition at 10 µM (p38β)?
Answer: Its inhibition at 10 µM is 3.8%.

Question: And the inhibition at 10 µM (PKACβ)?
Answer: The inhibition at 10 µM was -0.8%.

Question: And the inhibition at 10 µM (MSK2)?
Answer: Its inhibition at 10 µM is 0.7%.

Question: And the inhibition at 10 µM (KIT(D816V))?
Answer: Its inhibition at 10 µM is -4.8%.

Question: What about the inhibition at 10 µM (CRIK) of the same compound?
Answer: The inhibition at 10 µM was 1.6%.

Question: What about the inhibition at 10 µM (FGFR1) of the same compound?
Answer: The inhibition at 10 µM was -5%.

Question: And the inhibition at 10 µM (MAPKAPK3)?
Answer: The inhibition at 10 µM was -15.5%.

Question: And the inhibition at 10 µM (RET(G691S))?
Answer: The inhibition at 10 µM was 2.8%.

Question: And the inhibition at 10 µM (PDK1)?
Answer: Its inhibition at 10 µM is -4%.

Question: What about the inhibition at 10 µM (CK1ε) of the same compound?
Answer: The inhibition at 10 µM was 3.1%.

Question: And the inhibition at 10 µM (MER)?
Answer: Its inhibition at 10 µM is 3.8%.

Question: And the inhibition at 10 µM (RET)?
Answer: The inhibition at 10 µM was -1.9%.

Question: And the inhibition at 10 µM (CaMK2α)?
Answer: Its inhibition at 10 µM is -1.6%.

Question: And the inhibition at 10 µM (MAP2K2_Cascade)?
Answer: The inhibition at 10 µM was 6.4%.

Question: And the inhibition at 10 µM (CDK4/CycD3)?
Answer: Its inhibition at 10 µM is 18.1%.

Question: And the inhibition at 10 µM (PEK)?
Answer: Its inhibition at 10 µM is -6%.

Question: What about the inhibition at 10 µM (EPHA7) of the same compound?
Answer: Its inhibition at 10 µM is 33.9%.

Question: What about the inhibition at 10 µM (PDGFRα(V561D)) of the same compound?
Answer: The inhibition at 10 µM was 2.8%.

Question: What about the inhibition at 10 µM (ALK(F1174L)) of the same compound?
Answer: Its inhibition at 10 µM is 1.8%.

Question: What about the inhibition at 10 µM (ALK(L1196M)) of the same compound?
Answer: The inhibition at 10 µM was -5.2%.

Question: And the inhibition at 10 µM (HER2)?
Answer: The inhibition at 10 µM was -1%.

Question: What about the inhibition at 10 µM (LATS2) of the same compound?
Answer: Its inhibition at 10 µM is 5.4%.

Question: And the inhibition at 10 µM (DCAMKL2)?
Answer: The inhibition at 10 µM was -7.6%.

Question: What about the inhibition at 10 µM (PDHK2) of the same compound?
Answer: Its inhibition at 10 µM is 0.1%.

Question: What about the inhibition at 10 µM (SIK) of the same compound?
Answer: Its inhibition at 10 µM is 5.6%.

Question: And the inhibition at 10 µM (ABL(E255K))?
Answer: Its inhibition at 10 µM is -1.4%.

Question: What about the inhibition at 10 µM (TAOK2) of the same compound?
Answer: Its inhibition at 10 µM is -5.9%.

Question: And the inhibition at 10 µM (ROCK1)?
Answer: Its inhibition at 10 µM is 7%.

Question: And the inhibition at 10 µM (PKCζ)?
Answer: The inhibition at 10 µM was 0.5%.

Question: And the inhibition at 10 µM (MOS_Cascade)?
Answer: Its inhibition at 10 µM is 12.4%.
